Results reported in paper PMC2804440 (Neuron, 2009).

Tests used:
LGC-55 [1] = target: T1, LGC-55 (Caenorhabditis elegans, UniProt G5EEC1); test: two-electrode voltage clamp, Xenopus oocytes; type: cell-based
T1 sequence (G5EEC1 17-538): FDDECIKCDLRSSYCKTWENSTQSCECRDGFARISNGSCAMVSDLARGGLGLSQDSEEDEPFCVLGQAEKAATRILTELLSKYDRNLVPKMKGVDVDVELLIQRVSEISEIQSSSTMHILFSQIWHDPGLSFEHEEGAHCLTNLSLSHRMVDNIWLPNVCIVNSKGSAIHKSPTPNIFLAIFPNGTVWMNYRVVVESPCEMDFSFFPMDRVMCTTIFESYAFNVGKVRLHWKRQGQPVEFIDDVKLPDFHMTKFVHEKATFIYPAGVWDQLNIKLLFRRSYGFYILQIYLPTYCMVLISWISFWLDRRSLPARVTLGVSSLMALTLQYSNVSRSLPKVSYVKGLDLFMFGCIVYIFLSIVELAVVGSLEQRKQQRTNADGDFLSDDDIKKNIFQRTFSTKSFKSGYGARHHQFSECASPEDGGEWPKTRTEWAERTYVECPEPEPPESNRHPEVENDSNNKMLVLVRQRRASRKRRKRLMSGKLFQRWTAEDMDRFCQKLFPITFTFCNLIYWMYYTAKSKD

LGC-55 [2] = target: T1, LGC-55; test: two-electrode voltage clamp, Xenopus oocytes; type: cell-based; conditions: weak agonist; ND96, -60 mV, 10 s application, 22-24 °C

For `NCCc1ccc(O)c(O)c1` [dopamine], which EC50 (LGC-55 [1]) is on record?
The EC50 was 158.8 ± 1.1 µM.

How did the EC50 (LGC-55 [1]) turn out when `NC[C@H](O)c1ccc(O)cc1` [octopamine] was run?
Its EC50 is 215.2 ± 1.1 µM.

Which “small inward currents at millimolar concentrations” value (LGC-55 [2]) does the source give for `NCCc1c[nH]c2ccc(O)cc12` [serotonin] here?
Its value is “serotonin only elicited small LGC-55-dependent inward currents at millimolar concentrations”.

How did the EC50 (LGC-55 [1]) turn out when `NCCc1ccc(O)cc1` [tyramine] was run?
Its EC50 is 12.1 ± 1.2 µM.
